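How tested: cells in 96-well plates exposed to compound for 48 hours at five concentrations. Abbreviation: GI50, concentration required for 50% inhibition of growth.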 Calls of active or inactive are those of the source. No stated cut-off is given here; in the data, active = GI50 up to about 1.1 µM and inactive = higher.
Key:
Test in all cases: DTP human tumour cell line panel, 48 h
[1] = tested on: A498
[2] = tested on: CAKI-1
[3] = tested on: CCRF-CEM
[4] = tested on: COLO 205
[5] = tested on: HCC 2998
[6] = tested on: HCT-116
[7] = tested on: HOP-62
[8] = tested on: HT-29
[9] = tested on: K562
[10] = tested on: KM12
[11] = tested on: MDA-MB-435
[12] = tested on: MOLT-4
[13] = tested on: NCI-H226
[14] = tested on: NCI-H23
[15] = tested on: RPMI-8226
[16] = tested on: SK-MEL-2
[17] = tested on: SK-OV-3
[18] = tested on: TK-10

SMILES	GI50 [1]	GI50 [2]	GI50 [3]	GI50 [4]	GI50 [5]	GI50 [6]	GI50 [7]	GI50 [8]	GI50 [9]	GI50 [10]	GI50 [11]	GI50 [12]	GI50 [13]	GI50 [14]	GI50 [15]	GI50 [16]	GI50 [17]	GI50 [18]
COc1cccc2c(=O)c3c(n(C)c12)OC(C(C)C)C3 (stereo not given)	> 100 µM (inactive)	42.8 µM (inactive)	> 100 µM (inactive)	74 µM (inactive)	> 100 µM (inactive)	> 100 µM (inactive)	> 100 µM (inactive)	> 100 µM (inactive)	27.5 µM (inactive)	99.5 µM (inactive)	> 100 µM (inactive)	16.9 µM (inactive)	83.2 µM (inactive)	> 100 µM (inactive)	46.7 µM (inactive)	> 100 µM (inactive)	> 100 µM (inactive)	> 100 µM (inactive)
O=C(Nc1ccc2[nH]c(C(=O)N3CC(CCl)c4c3cc([N+](=O)[O-])c3ccccc43)cc2c1)c1cc2ccccc2o1 (stereo not given)	> 57.7 µM (inactive)	> 100 µM (inactive)	46.1 µM (inactive)	> 58.1 µM (inactive)	> 46.9 µM (inactive)	> 100 µM (inactive)	> 100 µM (inactive)	> 100 µM (inactive)	> 100 µM (inactive)	> 100 µM (inactive)	> 100 µM (inactive)	–	48.9 µM (inactive)	> 55.7 µM (inactive)	> 100 µM (inactive)	> 57 µM (inactive)	> 100 µM (inactive)	> 54.5 µM (inactive)
CSC1SCC2C(=O)N(C)C3(CC3C)C(=O)OCC(NC(=O)c3nc4ccccc4cc3O)C(=O)NC(C)C(=O)N(C)C1C(=O)N(C)C1(CC1C)C(=O)OCC(NC(=O)c1nc3ccccc3cc1O)C(=O)NC(C)C(=O)N2C (stereo not given)	< 0.0001 µM (active)	0.000871 µM (active)	< 0.0001 µM (active)	< 0.0001 µM (active)	< 0.0001 µM (active)	< 0.0001 µM (active)	< 0.0001 µM (active)	< 0.0001 µM (active)	< 0.0001 µM (active)	< 0.0001 µM (active)	< 0.0001 µM (active)	< 0.0001 µM (active)	< 0.0001 µM (active)	< 0.0001 µM (active)	< 0.0001 µM (active)	< 0.0001 µM (active)	< 0.0001 µM (active)	< 0.0001 µM (active)
O=C(N=C1N(c2ccccc2)C(=O)C(=O)N1c1ccccc1)c1ccccc1	18.2 µM (inactive)	13.5 µM (inactive)	24.8 µM (inactive)	13.9 µM (inactive)	8.53 µM (inactive)	3.99 µM (inactive)	11.5 µM (inactive)	13.7 µM (inactive)	29.2 µM (inactive)	17.3 µM (inactive)	22.9 µM (inactive)	15.5 µM (inactive)	12 µM (inactive)	13.6 µM (inactive)	13.8 µM (inactive)	15.5 µM (inactive)	4.68 µM (inactive)	15.3 µM (inactive)
COc1ccc(/C=C/C(=O)c2ccccc2)cc1OC	16.4 µM (inactive)	15.7 µM (inactive)	2.53 µM (inactive)	15.9 µM (inactive)	17.9 µM (inactive)	6.38 µM (inactive)	15.4 µM (inactive)	5.3 µM (inactive)	3.21 µM (inactive)	3.13 µM (inactive)	4.59 µM (inactive)	13.5 µM (inactive)	19.8 µM (inactive)	20.7 µM (inactive)	7.41 µM (inactive)	17.3 µM (inactive)	14.2 µM (inactive)	17.2 µM (inactive)
O=C1C=CC(=O)c2ncccc21	13.8 µM (inactive)	1.8 µM (inactive)	0.787 µM (active)	2.58 µM (inactive)	7.26 µM (inactive)	1.89 µM (inactive)	5.11 µM (inactive)	4.57 µM (inactive)	2.32 µM (inactive)	12.1 µM (inactive)	5.7 µM (inactive)	2.36 µM (inactive)	12.1 µM (inactive)	10.3 µM (inactive)	2.55 µM (inactive)	13.6 µM (inactive)	12.2 µM (inactive)	6.28 µM (inactive)
O=C1c2c(F)c(F)c(F)c(F)c2SC2=Nc3cccc4cccc(c34)N12	18.5 µM (inactive)	14.9 µM (inactive)	3.31 µM (inactive)	9.35 µM (inactive)	13.9 µM (inactive)	4.08 µM (inactive)	13.7 µM (inactive)	7.48 µM (inactive)	2.02 µM (inactive)	3.05 µM (inactive)	4.94 µM (inactive)	2.16 µM (inactive)	11.4 µM (inactive)	3.88 µM (inactive)	2.62 µM (inactive)	2.75 µM (inactive)	4.14 µM (inactive)	13.3 µM (inactive)
COC(=O)C(Cc1ccccc1)NS(=O)(=O)c1ccc(-c2c3nc(c(-c4ccc(S(=O)(=O)NC(Cc5ccccc5)C(=O)OC)cc4)c4ccc([nH]4)c(-c4ccc(S(=O)(=O)NC(Cc5ccccc5)C(=O)OC)cc4)c4nc(c(-c5ccc(S(=O)(=O)NC(Cc6ccccc6)C(=O)OC)cc5)c5ccc2[nH]5)C=C4)C=C3)cc1 (stereo not given)	> 100 µM (inactive)	> 100 µM (inactive)	> 100 µM (inactive)	> 100 µM (inactive)	> 100 µM (inactive)	> 100 µM (inactive)	60.8 µM (inactive)	> 100 µM (inactive)	> 100 µM (inactive)	> 100 µM (inactive)	> 100 µM (inactive)	> 100 µM (inactive)	–	> 100 µM (inactive)	> 100 µM (inactive)	> 100 µM (inactive)	> 100 µM (inactive)	> 100 µM (inactive)
CO[C@H]1C[C@H](O[C@H]2CC[C@]3(C=O)[C@H]4CC[C@]5(C)[C@@H](C6=CC(=O)OC6)CC[C@]5(O)[C@@H]4CC[C@]3(O)C2)O[C@H](C)[C@H]1O [CYMARIN]	0.294 µM (active)	0.102 µM (active)	–	0.618 µM (active)	2.08 µM (inactive)	0.163 µM (active)	0.114 µM (active)	0.233 µM (active)	0.184 µM (active)	0.402 µM (active)	0.344 µM (active)	0.0883 µM (active)	0.54 µM (active)	0.157 µM (active)	0.27 µM (active)	0.397 µM (active)	0.114 µM (active)	0.167 µM (active)
COC(=O)c1sc(=S)sc1SCc1cccc(CSc2sc(=S)sc2C(=O)OC)c1	24.8 µM (inactive)	34.5 µM (inactive)	> 100 µM (inactive)	> 100 µM (inactive)	> 100 µM (inactive)	90.6 µM (inactive)	16.1 µM (inactive)	> 100 µM (inactive)	79.8 µM (inactive)	> 100 µM (inactive)	> 100 µM (inactive)	> 100 µM (inactive)	–	27.9 µM (inactive)	> 100 µM (inactive)	38.8 µM (inactive)	19.6 µM (inactive)	29.4 µM (inactive)
CSc1ncc2c(C#N)c3[nH]c4ccccc4n3c(=O)c2n1	9.84 µM (inactive)	22.8 µM (inactive)	4.92 µM (inactive)	17 µM (inactive)	10.9 µM (inactive)	13.1 µM (inactive)	19.8 µM (inactive)	–	5.18 µM (inactive)	8.63 µM (inactive)	16.9 µM (inactive)	4.28 µM (inactive)	34.1 µM (inactive)	14.8 µM (inactive)	1.88 µM (inactive)	8.49 µM (inactive)	29.4 µM (inactive)	31.5 µM (inactive)
CCSC1SC(c2ccccc2)(c2ccccc2)c2ccccc21 (stereo not given)	22.5 µM (inactive)	48.6 µM (inactive)	54 µM (inactive)	35 µM (inactive)	45.1 µM (inactive)	30.8 µM (inactive)	> 100 µM (inactive)	34.6 µM (inactive)	62.4 µM (inactive)	38.5 µM (inactive)	33.7 µM (inactive)	25.4 µM (inactive)	31.6 µM (inactive)	47.9 µM (inactive)	32.8 µM (inactive)	–	> 100 µM (inactive)	67.3 µM (inactive)
C[C@H](CCC(=O)O)[C@H]1CC[C@H]2[C@@H]3C(=O)C[C@@H]4C[C@H](O)CC[C@]4(C)[C@H]3C[C@H](O)[C@]12C	> 100 µM (inactive)	> 100 µM (inactive)	> 100 µM (inactive)	> 100 µM (inactive)	> 100 µM (inactive)	> 100 µM (inactive)	> 100 µM (inactive)	> 100 µM (inactive)	> 100 µM (inactive)	> 100 µM (inactive)	> 100 µM (inactive)	> 100 µM (inactive)	> 100 µM (inactive)	> 100 µM (inactive)	> 100 µM (inactive)	> 100 µM (inactive)	–	> 100 µM (inactive)
COC(=O)C1(N2CCOCC2)CCC([C@@H](c2ccccc2)C(C)[N+](=O)[O-])C1 (stereo not given in full)	> 100 µM (inactive)	–	0.603 µM (active)	64.6 µM (inactive)	> 100 µM (inactive)	–	> 100 µM (inactive)	> 100 µM (inactive)	51.6 µM (inactive)	> 100 µM (inactive)	> 100 µM (inactive)	> 100 µM (inactive)	> 100 µM (inactive)	> 100 µM (inactive)	13 µM (inactive)	> 100 µM (inactive)	> 100 µM (inactive)	> 100 µM (inactive)
c1ccc(P(CCP(c2ccccn2)c2ccccn2)c2ccccc2)cc1	12.8 µM (inactive)	> 90.8 µM (inactive)	–	0.341 µM (active)	3.37 µM (inactive)	0.0192 µM (active)	0.0268 µM (active)	0.0247 µM (active)	0.0783 µM (active)	0.286 µM (active)	12.1 µM (inactive)	80.2 µM (inactive)	45.3 µM (inactive)	< 0.01 µM (active)	0.0409 µM (active)	7.67 µM (inactive)	48.9 µM (inactive)	26.5 µM (inactive)

Source: ChEMBL document CHEMBL1201862, “PubChem BioAssay data set” (2004)
